Experimental data taken from patent publication US20190359609A1, “BICYCLIC OGA INHIBITOR COMPOUNDS” (Janssen Pharmaceutica NV, priority 2016, published 2019).
Like-named read-outs stand apart in the source and are kept apart here.

Tests used:
OGA = molecular target: T1, OGA (Homo sapiens, UniProt O60502); assay: OGA cellular assay: ICC detection of O-GlcNAcylated proteins in HEK293 cells inducible for P301L mutant human Tau; format: cell-based; conditions: 6 hours incubation; for EC50: read-out: Cellular hOGA, pEC50 (converted)
T1 construct: endogenous in cells; host or cells: HEK293 cells inducible for P301L mutant human Tau (2N4R)
T1 sequence (O60502 1-916): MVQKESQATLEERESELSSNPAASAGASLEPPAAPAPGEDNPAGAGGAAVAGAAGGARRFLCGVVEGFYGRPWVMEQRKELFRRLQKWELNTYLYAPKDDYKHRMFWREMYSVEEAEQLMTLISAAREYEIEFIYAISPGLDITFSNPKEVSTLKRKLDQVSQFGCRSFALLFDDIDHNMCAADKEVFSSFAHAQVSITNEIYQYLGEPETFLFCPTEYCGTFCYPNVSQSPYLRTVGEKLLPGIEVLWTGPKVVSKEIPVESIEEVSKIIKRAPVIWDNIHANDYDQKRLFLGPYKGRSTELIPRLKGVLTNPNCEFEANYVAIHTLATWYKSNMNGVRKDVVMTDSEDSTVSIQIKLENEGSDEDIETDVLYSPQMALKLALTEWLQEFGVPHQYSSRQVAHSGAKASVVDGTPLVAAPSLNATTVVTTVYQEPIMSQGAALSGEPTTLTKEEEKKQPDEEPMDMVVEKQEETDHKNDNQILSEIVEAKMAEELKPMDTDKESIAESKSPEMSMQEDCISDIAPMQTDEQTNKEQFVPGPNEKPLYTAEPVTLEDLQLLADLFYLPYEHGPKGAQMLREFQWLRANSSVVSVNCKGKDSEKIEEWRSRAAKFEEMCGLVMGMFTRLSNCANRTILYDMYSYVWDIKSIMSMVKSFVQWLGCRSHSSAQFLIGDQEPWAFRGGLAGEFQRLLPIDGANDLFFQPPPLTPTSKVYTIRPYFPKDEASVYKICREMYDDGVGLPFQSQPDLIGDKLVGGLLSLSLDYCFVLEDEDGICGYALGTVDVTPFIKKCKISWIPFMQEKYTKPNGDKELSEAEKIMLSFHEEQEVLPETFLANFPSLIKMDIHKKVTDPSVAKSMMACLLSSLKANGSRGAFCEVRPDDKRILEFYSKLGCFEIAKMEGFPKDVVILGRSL
Protocol: HEK293 cells inducible for P301L mutant human Tau (isoform 2N4R) were established at Janssen. Thiamet-G was used for both plate validation (high control) and as reference compound (reference EC50 assay validation). OGA inhibition is evaluated through the immunocytochemical (ICC) detection of O-GlcNAcylated proteins by the use of a monoclonal antibody (CTD110.6; Cell Signaling, #9875) detecting O-GlcNAcylated residues as previously described (Dorfmueller et al. 2010 Chemistry & biology, 17:1250).
Inhibition of OGA will result in an increase of 0-GlcNAcylated protein levels resulting in an increased signal in the experiment. Cell nuclei are stained with Hoechst to give a cell culture quality control and a rough estimate of immediate compounds toxicity, if any. ICC pictures are imaged with a Perkin Elmer Opera Phenix plate microscope and quantified with the provided software Perkin Elmer Harmony 4.1.
Cells were propagated in DMEM high Glucose (Sigma, #D5796) following standard procedures. 2 days before the cell assay cells are split, counted and seeded in Poly-D-Lysine (PDL) coated 96-wells (Greiner, #655946) plate at a cell density of 12,000 cells per cm^2 (4,000 cells per well) in 100 μl of Assay Medium (Low Glucose medium is used to reduce basal levels of GlcNAcylation) (Park et al. 2014 The Journal of biological chemistry 289:13519). At the day of compound test medium from assay plates was removed and replenished with 90 μl of fresh Assay Medium. 10 μl of compounds at a 10fold final concentration were added to the wells. Plates were centrifuged shortly before incubation in the cell incubator for 6 hours. DMSO concentration was set to 0.2%. Medium is discarded by applying vacuum. For staining of cells medium was removed and cells washed once with 100 μl D-PBS (Sigma, #D8537). From next step onwards unless other stated assay volume was always 50 μl and incubation was performed without agitation and at room temperature. Cells were fixed in 50 μl of a 4% paraformaldehyde (PFA, Alpha aesar, #043368) PBS solution for 15 minutes at room temperature. […] Before analysis samples were washed 2 times manually for 5 minutes in ICC base buffer.
Imaging is performed using Perkin Elmer Phenix Opera using a water 20× objective and recording 9 fields per well. Intensity readout at 488 nm is used as a measure of O-GlcNAcylation level of total proteins in wells. To assess potential toxicity of compounds nuclei were counted using the Hoechst staining. IC50-values are calculated using parametric non-linear regression model fitting. As a maximum inhibition Thiamet G at a 200 uM concentration is present on each plate. In addition, a concentration response of Thiamet G is calculated on each plate.

[1] = molecular target: T2, recombinant human Meningioma Expressed Antigen 5 (MGEA5), also referred to as O-GlcNAcase (OGA) (Homo sapiens, UniProt O60502); assay: OGA biochemical assay: inhibition of FM-GlcNAc hydrolysis, fluorescence (protocol A 10 nM OGA, 1 h; protocol B 2 nM OGA, 6 h); conditions: for IC50: read-out: Enzymatic hOGA, pIC50 (converted); for Emax: read-out: Enzymatic Emax (%)
T2 construct: Full length OGA enzyme was purchased at OriGene (cat # TP322411); purchased OriGene TP322411
T2 sequence (O60502 1-916): T1 sequence (O60502 1-916)
Source text: The assay is based on the inhibition of the hydrolysis of fluorescein mono-B-D-N-Acetyl-Glucosamine (FM-GlcNAc) (Mariappa et al. 2015, Biochem J 470:255) by the recombinant human Meningioma Expressed Antigen 5 (MGEA5), also referred to as 0-GlcNAcase (OGA). The hydrolysis FM-GlcNAc (Marker Gene technologies, cat # M1485) results in the formation of β-D-N-glucosamineacetate and fluorescein. The fluorescence of the latter can be measured at excitation wavelength 485 nm and emission wavelength 538 nm. An increase in enzyme activity results in an increase in fluorescence signal. Full length OGA enzyme was purchased at OriGene (cat # TP322411). The enzyme was stored in 25 mM Tris.HCl, pH 7.3, 100 mM glycine, 10% glycerol at −20° C. Thiamet G and GlcNAcStatin were tested as reference compounds (Yuzwa et al. 2008 Nature Chemical Biology 4:483; Yuzwa et al. 2012 Nature Chemical Biology 8:393). The assay was performed in 200 mM Citrate/phosphate buffer supplemented with 0.005% Tween-20. 35.6 g Na2HPO4 2 H2O (Sigma, # C0759) were dissolved in 1 L water to obtain a 200 mM solution. 19.2 g citric acid (Merck, #1.06580) was dissolved in 1 L water to obtain a 100 mM solution. pH of the sodiumphosphate solution was adjusted with the citric acid solution to 7.2. The buffer to stop the reaction consists of a 500 mM Carbonate buffer, pH 11.0. 734 mg FM-GlcNAc were dissolved in 5.48 mL DMSO to obtain a 250 mM solution and was stored at −20° C. OGA was used at a 10 nM (protocol A) or 2 nM (protocol B) concentration and FM-GlcNAc at a 100 uM final concentration. Dilutions were prepared in assay buffer.
50 nl of a compound dissolved in DMSO was dispensed on Black Proxiplate™ 384 Plus Assay plates (Perkin Elmer, #6008269) and 3 μl fl-OGA enzyme mix added subsequently. Plates were pre-incubated for 60 min at room temperature and then 2 μl FM-GlcNAc substrate mix added. […] Plates were briefly centrifuged for 1 min at 1000 rpm and incubate at room temperature for 1 h (10 nM OGA, protocol A) or 6 h (2 nM OGA, protocol B). To stop the reaction 5 μl STOP buffer were added and plates centrifuge again 1 min at 1000 rpm. Fluorescence was quantified in the Thermo Scientific Fluoroskan Ascent or the PerkinElmer EnVision with excitation wavelength 485 nm and emission wavelength 538 nm.
For analysis a best-fit curve is fitted by a minimum sum of squares method. From this an IC50 value and Hill coefficient was obtained. High control (no inhibitor) and low control (saturating concentrations of standard inhibitor) were used to define the minimum and maximum values.

PDE2 = PDE2 (Homo sapiens, UniProt O00408); assay: PDE2 inhibitory activity (protocol as described in WO2017/076900, page 28); format: biochemical; conditions: screening concentration of 10 μM; read-out: PDE2 inhibitory activity, % effect
Chain of PDE2 (O00408 whole entry): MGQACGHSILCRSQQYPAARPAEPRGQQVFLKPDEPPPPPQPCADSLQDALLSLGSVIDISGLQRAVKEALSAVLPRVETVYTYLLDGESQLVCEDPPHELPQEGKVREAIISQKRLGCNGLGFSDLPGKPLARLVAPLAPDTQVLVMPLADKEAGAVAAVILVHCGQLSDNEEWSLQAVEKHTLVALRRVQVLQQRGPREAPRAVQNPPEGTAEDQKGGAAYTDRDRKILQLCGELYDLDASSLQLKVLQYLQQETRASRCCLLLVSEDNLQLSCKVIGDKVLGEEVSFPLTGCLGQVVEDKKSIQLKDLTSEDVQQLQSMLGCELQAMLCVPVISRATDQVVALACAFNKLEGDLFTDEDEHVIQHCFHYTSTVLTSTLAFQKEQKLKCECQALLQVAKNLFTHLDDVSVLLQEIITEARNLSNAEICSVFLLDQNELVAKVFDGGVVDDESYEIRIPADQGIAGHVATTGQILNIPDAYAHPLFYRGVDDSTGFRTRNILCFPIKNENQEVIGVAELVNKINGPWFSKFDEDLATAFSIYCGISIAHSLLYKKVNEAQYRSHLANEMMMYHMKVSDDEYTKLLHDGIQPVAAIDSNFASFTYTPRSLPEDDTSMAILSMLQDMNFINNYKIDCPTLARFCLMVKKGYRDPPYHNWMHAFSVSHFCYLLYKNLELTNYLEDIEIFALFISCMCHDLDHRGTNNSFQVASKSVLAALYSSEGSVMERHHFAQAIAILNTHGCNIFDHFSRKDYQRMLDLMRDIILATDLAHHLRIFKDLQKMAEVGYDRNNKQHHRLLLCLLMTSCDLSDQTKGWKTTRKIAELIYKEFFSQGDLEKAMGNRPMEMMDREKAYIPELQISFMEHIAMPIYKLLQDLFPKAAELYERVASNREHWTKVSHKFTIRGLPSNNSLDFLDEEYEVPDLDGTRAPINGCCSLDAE

[2] = Enzymatic protocol A (10 nM OGA, 1 h)
[3] = Enzymatic protocol B (2 nM OGA, 6 h)

Row | Emax (OGA) | EC50 (OGA) | Enzymatic Emax (%) [1, 2] | IC50 [1, 2] | melting point | Emax [1, 2] | inhibition at 10 µM (PDE2) | Emax [1, 3] | IC50 [1, 3] | SMILES
1 | 109% | 851 nM | 102% | 148 nM | 228.2 °C |  |  |  |  | CC(=O)Nc1ncc(CN2CCCC(c3nc4ncccc4[nH]3)C2)s1 (single isomer, unassigned) [Compound 19]
2 |  |  |  | 263 nM |  | 102% | 33.1% |  |  | CC(=O)Nc1ncc(S(=O)(=O)N2CCCC(c3cc4ncccc4[nH]3)C2)s1 (stereo not shown) [Compound 2]
3 | 7.2% | > 10000 nM |  |  | 179.9 °C |  |  | 80.5% | 2630 nM | O=C(CN1CCCC(c2cc3ncccc3[nH]2)C1)N1CCCC1 (stereo not shown) [Compound 49]
4 |  |  |  |  | 190.09 °C |  |  | 99.7% | 1.17 nM | CC(=O)Nc1ncc(CN2CC[C@H](Cc3cc4ncccc4n3C)C2)s1 [Compound 59]
5 |  |  |  |  | 153.79 °C |  |  | 99.2% | 9.33 nM | CC(=O)Nc1ncc(CN2CCC(Cc3cc4cccnc4n3C)C2)s1 (stereo not shown) [Compound 60]
6 |  |  |  |  | 195.06 °C |  |  | 100% | 1.51 nM | CC(=O)Nc1ncc(CN2CCC(Cc3cc4cnccc4n3C)C2)s1 (stereo not shown) [Compound 61]
